This note sets out measurements from US20250099512A1, “USE OF BACTEROIDES FRAGILIS IN IMPROVEMENT AND TREATMENT OF DIARRHEA” (priority 2022, published 2025).

The test system of test [1] is mice with Escherichia coli-induced diarrhea. The test is described as follows: Effect on mice with Escherichia coli-induced diarrhea (Example 6). To be noted: positive control, berberine hydrochloride 0.01 g/mL i.g. QD*7 days; Escherichia coli i.p. model. In kind it is in vivo. The method, then: Escherichia coli preserved on a slant was inoculated on a nutrient agar plate and cultured at 37° C. for 24 h. Several colonies were then picked, inoculated into MH broth, followed by another 24 hours of culture at 37° C. The culture was then diluted with sterilized normal saline and subjected to turbidity adjustment using a 0.5 Mcfarland turbidimetric tube, thus achieving a bacterial content of 3×10^8 CFU/mL.
Mice weighing about 20 g were selected, and each mouse was intraperitoneally injected with 0.2 mL of the Escherichia coli bacteria solution with a bacterial content of 3×10^8 CFU/mL for diarrhea induction. A positive control group received a 0.01 g/mL aqueous berberine hydrochloride solution administered intragastrically. The experimental grouping and procedures were the same as in Example 3. The mice were continuously observed for 5 h, and the diarrhea indices of the mice were recorded.

In test [2] the test system is Cryptosporidium cuniculus. Description: Effect on diarrhea in rabbits infected with Cryptosporidium cuniculus, oocysts in stools (Example 12). In kind it is in vivo, New Zealand white rabbits. The source says:
A parasite-associated diarrhea model was constructed by intragastric administration of Cryptosporidium cuniculus oocysts (extracted from a single positive stool sample from a rabbit farm in Jilin) in New Zealand white rabbits. Subsequently, the Bacteroides fragilis live bacteria solution, inactivated bacteria powder and lysate solution (prepared in Example 2) were each used for treatment. The therapeutic effects of the Bacteroides fragilis live bacteria solution, inactivated bacteria powder and lysate solution were observed.
New Zealand white rabbits aged 35 days were selected and randomly divided into the following 6 groups: a blank group (group 1), a model group (group 2), a positive control group (nitazoxanide) (group 3), a Bacteroides fragilis inactivated bacteria powder group (group 4), a Bacteroides fragilis lysate solution group (group 5), and a Bacteroides fragilis live bacteria solution group (group 6), with 8 rabbits in each group. The New Zealand white rabbits in groups 2 to 6 were intragastrically inoculated with 1.5×10^4 Cryptosporidium cuniculus oocysts, and the blank group was intragastrically given normal saline. […] The stools were collected to prepare a stool suspension, and structures with oocysts were observed under a microscope, indicating successful modeling. Therefore, treatment could be carried out. The blank group was given normal saline, and the treatment groups were subjected to drug administration. The treatment was carried out twice daily for 7 consecutive days. The New Zealand white rabbits were observed daily for diarrhea condition. On day 1 of the treatment and at the end of the treatment, the stool samples were collected, and the number of oocysts was observed under a microscope.

Structures can show the parent of a compound that is named as a salt.

Compound `COc1ccc2cc3[n+](cc2c1OC)CCc1cc2c(cc1-3)OCO2` [berberine hydrochloride] had a Diarrhea index in test [1] of 1.25 ± 0.13.

Consider `CC(=O)Oc1ccccc1C(=O)Nc1ncc([N+](=O)[O-])s1` [nitazoxanide], for which the “Number of oocysts in stools (×10^6 oocysts/rabbit, mean ± SD)” value in test [2] (D 1 of administration, i.g. Bid*7 days, nitazoxanide 10 mg/kg, Bacteroides fragilis 1 × 10^8 cells/mL) is reported as 1.8 ± 0.6 ×10^6 oocysts/rabbit; in test [2] (D 2 of administration, doses as Table 23), 3.2 ± 1.5 ×10^6 oocysts/rabbit; in test [2] (D 3 of administration, doses as Table 23), 2.8 ± 0.9 ×10^6 oocysts/rabbit; in test [2] (D 4 of administration, doses as Table 23), 2.2 ± 0.2 ×10^6 oocysts/rabbit; in test [2] (D 5 of administration, doses as Table 23) it was 1.5 ± 1.1 ×10^6 oocysts/rabbit; in test [2] (D 6 of administration, doses as Table 23) it was 1.3 ± 0.1 ×10^6 oocysts/rabbit. Besides, the “Number of oocysts in stools (×10^6 oocysts/rabbit, mean ± SD)” value in test [2] (D 7 of administration, doses as Table 23) is reported as 0.6 ± 0.2 ×10^6 oocysts/rabbit. Besides, the “total number of oocysts in the stools of each New Zealand rabbit during the treatment period” value in test [2] (FIG. 5, P<0.0001, doses as Table 23) was “significantly lower than that in the model group”.
